In US12612409B2, “Pyrrolopyrimidines as CFTR potentiators” (Cystic Fibrosis Foundation, priority 2016, dated 2026):

Key:
[1] = molecular target: T1, CFTR in F508del/F508del primary CF hBE cells (Homo sapiens, UniProt P13569, DEL508-508); test: Ussing chamber electrophysiology assay of CFTR potentiation in F508del/F508del CF bronchial epithelial cells (27° C.); assay type: cell-based
T1 construct: Primary cystic fibrosis human bronchial epithelial (CF hBE) cells were expanded and cultured; endogenous in cells; host or cells: primary CF human bronchial epithelial cells, genotype F508del/F508del
How it was run: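 Well-differentiated primary CF hBE cells (>30 days air/liquid interface) in Ussing chambers, HEPES saline both sides, voltage clamped to zero. Amiloride 30 uM, forskolin 10 uM, four rising compound concentrations, then CFTRinh-172 20 uM added at 20-25 min intervals. Short-circuit current scaled to DMSO (0%) and a positive control potentiator maximum (100%).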

[2] = molecular target: T2, recombinant F508del V470 CFTR in Fischer rat thyroid (FRT) cells (Homo sapiens, UniProt P13569, DEL508-508); test: FRT ion flux assay of F508del CFTR potentiation; assay type: cell-based; conditions: FRT cells expressing F508del V470 CFTR, forskolin 20 uM, 27° C. pre-incubation
T2 construct: expressed in transfected cells
How it was run: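 FRT cells co-expressing F508del V470 CFTR and halide-sensitive YFP, temperature-corrected at 27° C for 16-24 h, then treated 30 min with compound plus 20 uM forskolin. Iodide addition quenches YFP, read after ~21 s; ratio scaled to DMSO (0%) and positive control potentiator (100%).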

T1 sequence (P13569 with tags, fused parts or gaps DEL508-508): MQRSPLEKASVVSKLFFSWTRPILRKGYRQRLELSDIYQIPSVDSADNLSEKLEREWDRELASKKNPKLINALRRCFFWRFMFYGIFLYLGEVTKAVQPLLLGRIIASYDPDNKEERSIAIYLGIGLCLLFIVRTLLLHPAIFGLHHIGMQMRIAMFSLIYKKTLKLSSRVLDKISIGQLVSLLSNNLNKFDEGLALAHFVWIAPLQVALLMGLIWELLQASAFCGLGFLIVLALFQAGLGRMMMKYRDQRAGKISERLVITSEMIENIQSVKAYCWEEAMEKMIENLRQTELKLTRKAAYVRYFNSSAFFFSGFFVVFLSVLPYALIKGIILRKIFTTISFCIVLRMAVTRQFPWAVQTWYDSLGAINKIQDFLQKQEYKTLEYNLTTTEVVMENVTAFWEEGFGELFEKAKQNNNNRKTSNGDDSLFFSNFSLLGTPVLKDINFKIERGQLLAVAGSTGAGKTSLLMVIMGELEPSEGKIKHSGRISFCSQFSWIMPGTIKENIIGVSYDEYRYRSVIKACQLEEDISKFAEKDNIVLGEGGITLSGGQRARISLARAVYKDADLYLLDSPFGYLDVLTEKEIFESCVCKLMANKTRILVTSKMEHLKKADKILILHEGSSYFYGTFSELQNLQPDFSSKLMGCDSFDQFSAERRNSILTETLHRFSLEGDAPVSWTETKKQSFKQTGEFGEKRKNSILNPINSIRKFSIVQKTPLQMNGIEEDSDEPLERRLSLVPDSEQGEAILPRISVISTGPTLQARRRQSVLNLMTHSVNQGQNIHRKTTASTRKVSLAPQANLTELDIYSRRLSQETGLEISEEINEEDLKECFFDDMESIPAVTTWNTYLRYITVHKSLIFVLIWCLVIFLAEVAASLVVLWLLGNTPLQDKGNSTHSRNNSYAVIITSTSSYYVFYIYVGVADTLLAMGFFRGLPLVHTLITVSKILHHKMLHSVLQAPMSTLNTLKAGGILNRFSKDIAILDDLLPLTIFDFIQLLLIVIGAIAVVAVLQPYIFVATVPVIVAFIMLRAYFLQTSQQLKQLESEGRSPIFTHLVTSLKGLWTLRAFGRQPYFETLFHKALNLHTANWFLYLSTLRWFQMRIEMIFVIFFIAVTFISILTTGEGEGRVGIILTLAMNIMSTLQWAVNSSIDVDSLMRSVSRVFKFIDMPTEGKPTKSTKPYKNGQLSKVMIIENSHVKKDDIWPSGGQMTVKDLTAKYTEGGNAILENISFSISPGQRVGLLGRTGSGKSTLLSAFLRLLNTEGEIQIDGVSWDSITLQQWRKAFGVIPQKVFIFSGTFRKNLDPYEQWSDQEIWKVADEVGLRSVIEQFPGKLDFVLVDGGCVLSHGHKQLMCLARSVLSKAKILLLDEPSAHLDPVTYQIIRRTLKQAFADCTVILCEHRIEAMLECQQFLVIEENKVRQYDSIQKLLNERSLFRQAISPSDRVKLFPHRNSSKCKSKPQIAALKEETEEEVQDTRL
T2 sequence (P13569 with tags, fused parts or gaps DEL508-508): as above

SMILES	EC50 [1]	EC50 [2]
CCC(c1cn(-c2ccc(F)cc2F)nn1)n1cc(-c2cnc(OC)c(F)c2)c2c(N)ncnc21 (single isomer, unassigned; enantiomer 1) [Example 165, 7-{1-[1-(2,4-Difluorophenyl)-1H-1,2,3-triazol-4-yl]propyl}-5-(5-fluoro-6-methoxypyridin-3-yl)-7H-pyrrolo[2,3-d]pyrimidin-4-amine, enantiomer 1]	247 nM	728 nM
Cc1c(C(C)n2c(C#N)c(-c3cnc(C(F)(F)F)nc3)c3c(N)ncnc32)nnn1-c1ccccc1F (single isomer, unassigned) [Example 13, 4-amino-7-(1-(1-(2-fluorophenyl)-5-methyl-1H-1,2,3-triazol-4-yl)ethyl)-5-(2-(trifluoromethyl)pyrimidin-5-yl)-7H-pyrrolo[2,3-d] pyrimidine-6-carbonitrile]	267 nM	96.8 nM
COc1ncc(-c2cn(C(C)c3cc(-c4ccccc4F)no3)c3ncnc(N)c23)cn1 (single isomer, unassigned; (+)) [Example 184, (+) 7-{1-[3-(2-fluorophenyl)-1,2-oxazol-5-yl]ethyl}-5-(2-methoxypyrimidin-5-yl)-7H-pyrrolo[2,3-d]pyrimidin-4-amine]	32.6 nM	49.7 nM
CCC(c1cn(-c2ccccc2F)nn1)n1cc(-c2ccc(Cl)cc2)c2c(N)ncnc21 (single isomer, unassigned; enantiomer 2) [Example 132, (+) 5-(4-Chlorophenyl)-7-{1-[1-(2-fluorophenyl)-1H-1,2,3-triazol-4-yl]propyl}-7H-pyrrolo[2,3-d]pyrimidin-4-amine, enantiomer 2]	11.3 nM	38 nM
CCC(c1cn(-c2cccc(F)c2F)nn1)n1c(C#N)c(-c2cnc(C(F)(F)F)nc2)c2c(N)ncnc21 (single isomer, unassigned) [Example 19, 4-amino-7-{1-[1-(2,3-difluorophenyl)-1H-1,2,3-triazol-4-yl]propyl}-5-[2-(trifluoromethyl)pyrimidin-5-yl]-7H-pyrrolo[2,3-d] pyrimidine-6-carbonitrile]	34.7 nM	69.6 nM

Other lines, results leading:

EC50 [1]	EC50 [2]	SMILES
23.9 nM	27.6 nM	COc1nc(C(F)(F)F)ncc1-c1cn(Cc2cn(-c3ccccc3F)nn2)c2ncnc(N)c12 [Example 252, 7-{[1-(2-Fluorophenyl)-1H-1,2,3-triazol-4-yl]methyl}-5-[4-methoxy-2-(trifluoromethyl)pyrimidin-5-yl]-7H-pyrrolo[2,3-d]pyrimidin-4-amine]
372 nM	545 nM	CCC(c1cn(-c2cccc(F)c2F)nn1)n1cc(-c2cncnc2OC)c2c(N)ncnc21 (single isomer, unassigned; enantiomer 1) [Example 305, (−) 7-{1-[1-(2,3-Difluorophenyl)-1H-1,2,3-triazol-4-yl]propyl}-5-(4-methoxypyrimidin-5-yl)-7H-pyrrolo[2,3-d]pyrimidin-4-amine, enantiomer 1]
83 nM	94.4 nM	CC(c1cn(-c2ccccc2F)nn1)n1cc(-c2ccc(C#N)c(F)c2)c2c(N)ncnc21 (stereo not drawn) [Example 239, 4-(4-Amino-7-{1-[1-(2-fluorophenyl)-1H-1,2,3-triazol-4-yl)ethyl]-7H-pyrrolo[2,3-d]pyrimidin-5-yl}-2-fluorobenzonitrile]
279 nM	1020 nM	CCC(c1cn(-c2cc(F)cc(F)c2)nn1)n1cc(-c2cnc(C(F)(F)F)nc2)c2c(N)ncnc21 (single isomer, unassigned; enantiomer 2) [Example 312, 7-{1-[1-(3,5-Difluorophenyl)-1H-1,2,3-triazol-4-yl]propyl}-5-[2-(trifluoromethyl)pyrimidin-5-yl]-7H-pyrrolo[2,3-d]pyrimidin-4-amine, enantiomer 2]
